The text below walks through data of patent publication US20120192315A1, “RESISTANCE GENES AND PROTEINS ACTIVE AGAINST FUSARIUM ROOT ROTS, CYST NEMATODES AND SOYBEAN SUDDEN DEATH SYNDROME AND METHODS EMPLOYING SAME” (Southern Illinois University Carbondale, priority 2011, published 2012).

Test [1] addresses GmRLK18-1 LRR domain (RHG1). In words: Binding of CLE like peptides to purified LRR domain of the RLK at rhg1/Rfs2, titration by luminescence spectrometry. Also on record: species or system Glycine max. From the text: (§1) The full length rhg1/Rfs2 or Rhg4 cDNA from the SCN resistant cultivar, ‘Forrest’ (Bruker et al. 2005), was sub-cloned in pGEM-T vector. For the rhg1/Rfs2 LRR DNA was PCR amplified using internal primers. Primers were designed to copy and amplify a 1032 bp region encompassing the 10 LRRs of rhg1. The sense primer 141-485F: 5′-[…]-3′ contained an eight base linker followed by an NcoI restriction site (in bold) to allow in-frame cloning into the expression vector pET30A (+). A factor Xa site (underlined) was incorporated in the sense primer in order to cleave the fusion protein. The anti-sense primer 141-485R: 5′-[…]-3′ contained a six base linker followed by an XhoI restriction site (in bold). The stop codon (underlined) was added to the primer sequence to terminate the RHG1 translation. The amplicon obtained by PCR was isolated by agarose gel electrophoresis and purified using gel elution. The amplified fragment was subcloned into pGEMT vector by ligation of the 3′T vector overhang with the 3′A added by Taq polymerase during template amplification. The complementarity between the vector 3′T overhangs and the PCR product 3′A overhangs allowed for direct ligation of PCR products into the vector. pGEMT vector was transformed into DH5a cells, positive colonies were selected and grown overnight in 5 ml of 2-fold YT medium. The recombinant plasmid DNA was purified using the Qiagen mini-prep kit.
About […] of the LRR sub-clone plasmid DNA was digested with NcoI and XhoI. Purified insert was ligated overnight at 16° C. using T4 DNA ligase into a XhoI/NcoI predigested pET30a (+) vector. The ratio of insert DNA to plasmid DNA was 3:1. The construct contained the hexa-his inframe with the Factor Xa vector site and 5′ end of the insert. The recombinant plasmid was transformed into DH5a cells. Positive colonies were selected on 2-fold YT plates supplemented with 50 μg/ml kanamycin and screened by digestion of mini-prep plasmid DNA with NcoI and XhoI followed by agarose gel electrophoresis. The nature of the inserts were also verified by DNA sequence analysis using the ABI 377 DNA sequencer (Foster City, Calif.).
A Quikchange site directed mutagenesis kit (Stratagene) was used for RLSH generation. Both sense and anti-sense primers were designed to loop out the 114 bp nucleotide linker region between the hexa-his tag and the first codon of RLLH. The forward primer DMF1: 5′-[…]-3′ and reverse primer DMR1: 5′-[…]-3′ were complementary in sequence and annealed to opposite stands of DNA. Amplification of template was performed with Pfu-Turbo DNA polymerase. Following amplification, the parent DNA (methylated and hemi-methylated) was digested with DpnI endonuclease (target sequence: 5′-Gm6ATC-3′). The amplified vector DNA containing the desired deletion was transformed into XL1-Blue competent cells and the cells were grown overnight in 2XYT supplemented with 50 μg/ml tetracycline and 50 μg/ml kanamycin. Colonies were picked, grown overnight, DNA purified and inserts identified by digestion of plasmid DNA with NdeI and XhoI followed by 2% (w/v) agarose gel electrophoresis. DNA was subsequently sequenced to verify looping out of the RLLH linker region. DNA from positive clones was transformed into BL21 (DE3-RIL) competent cells.
BL21-CodonPlus™-RIL series of strains contain extra copies of the E. coli argU, ileY, and leuW tRNA genes. The modification allowed for high expression of proteins that were difficult to express in conventional E. coli hosts due to the codon usage bias of the gene of interest. RHG1 protein contained 18 codons rarely used in E. coli in the LRR alone (Table 3.1). The 5 ml of LB overnight culture containing Rhg1/Rfs2 LRR or Rhg4 LRR was transferred to 1 L of M9 minimal media supplemented with ammonium sulfate and kanamycin. The cells were grown at 37° C. to an O.D of 1.0. The protein was induced with 0.4 mM IPTG and incubated at 16° C. in an orbital shaker for 18-20 h. […]

Test [2] deals with GmRLK8-1 LRR domain (RHG4). Put plainly: Binding of CLE like peptides to purified LRR domain of the RLK at Rhg4, titration by luminescence spectrometry. More on the design: species or system Glycine max.
Source text: as §1
BL21-CodonPlus™-RIL series of strains contain extra copies of the E. coli argU, ileY, and leuW tRNA genes. The modification allowed for high expression of proteins that were difficult to express in conventional E. coli hosts due to the codon usage bias of the gene of interest. RHG1 protein contained 18 codons rarely used in E. coli in the LRR alone (Table 3.1). The 5 ml of LB overnight culture containing Rhg1/Rfs2 LRR or Rhg4 LRR was transferred to 1 L of M9 minimal media supplemented with ammonium sulfate and kanamycin. The cells were grown at 37° C. to an O.D of 1.0. The protein was induced with 0.4 mM IPTG and incubated at 16° C. in an orbital shaker for 18-20 h.
Proteins were solubilized from IBs, purified and refolded by the method described by Afzal and Lightfoot 2007, Protein Expression and Purification 53: 346-355. They were produced as in Example 9 and used for Far Western identification of interacting root proteins (FIGS. 4 & 5) and for identification of preferred ligands among small peptides found in root phloem (Table 4).

Test [3] in a line: Exogenous peptide treatment of plants. Type of test: in vivo. The note with it: phenotypes: transient wilting, increased plant vigor, increased disease resistance.
For test [4], the system named is GmRLK18-1 LRR domain. Put plainly: Far-Western analysis of soybean root proteins probed with the LRR domain of GmRLK18-1. Type of test: binding, Glycine max. The note with it: 2D gel of SCN inoculated root proteins of NIL 34-23; MS identification.
Test [5] concerns the target GmRLK8-1 LRR domain (from the RLK protein at Rhg4) (Glycine max). Put plainly: fluorescence (luminescence spectrometry) titration of peptide with purified LRR domain, in vitro.
The target of test [6] is T1, purified GmRLK18-1 LRR domain (6x his-RHG1) (Glycine max).
T1 chain: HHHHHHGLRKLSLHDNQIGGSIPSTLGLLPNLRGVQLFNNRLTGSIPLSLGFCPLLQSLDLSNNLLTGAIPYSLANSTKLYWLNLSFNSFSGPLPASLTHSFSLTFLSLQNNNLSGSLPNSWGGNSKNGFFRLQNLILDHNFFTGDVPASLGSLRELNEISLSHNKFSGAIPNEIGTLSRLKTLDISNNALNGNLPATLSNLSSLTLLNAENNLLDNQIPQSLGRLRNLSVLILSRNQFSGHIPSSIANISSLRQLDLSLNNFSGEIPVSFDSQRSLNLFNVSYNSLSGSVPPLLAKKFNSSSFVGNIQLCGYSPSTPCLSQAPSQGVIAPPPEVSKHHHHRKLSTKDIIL
Described as above.

In test [7] the target is T1, purified GmRLK18-1 LRR domain (6x …). In words: fluorescence (luminescence spectrometry) titration of peptide with purified LRR domain, in vitro; apparent Kd for dimerization.
Setting [8] is: purified LRR domain, binding constants calculated from titration experiments, read-out: Kd (nM) RHG4.
Setting [9] is: purified LRR domain, binding constants calculated from titration experiments, read-out: Kd (nM) RHG1.

“Also recorded” adds a separate entry of the source. Where two headings read alike, the source gives them in different places. Where no end group is shown, it is not given here.

For the molecule AHEVPSGPNPISNR [T, AHEVPSGPNPISNR], the Kd in test [1] (assays in vitro, read-out: binding constants, GmRLK18-1-LRR) was 20 nM; in test [2] (setting [8]) it was 204 nM. Further, in test [2] (assays in vitro), the “binding by the GmRLK8-1 LRR domain protein, in words” value is given as “bound weakly”. Moreover, the “effect as exogenous treatment” value in test [3] is given as “effective”.

Turning to CTLSRLKTLDISNNALNGNLPATLSNLS [L], the Kd in test [1] (estimated from the peptide with one diverged LRR motif, read-out: apparent Kd for dimerization) is 36 nM; in test [2] (setting [8]), 135 nM.

On to DLPLAPADRLAPGGPDPQHNVRAPPRKP [2L], for which the Kd was 142 nM in test [1] (setting [9]) and 338 nM in test [2] (setting [8]).

Turning to KGLGLHEELRTVPSGPDPLHHHVNPPRQPR [3L], the Kd in test [1] (setting [9]) was 65 nM; in test [2] (setting [8]) it was 142 nM.

Consider KRLSPSGPDPHHH [N, KRLSPSGPDPHHH], for which the “binding by the GmRLK18-1 derived LRR peptide, in words” value in test [1] (assays in vitro) is “strong binding constant”. In addition, the Kd was 30 nM in test [1] (setting [9]) and 78 nM in test [2] (assays in vitro, read-out: affinity, GmRLK8-1 LRR domain). In test [3], the “effect as exogenous treatment” value was “effective”.

RAELDFNYMSKRRVPNGPDPIHNRRAGNSGR [36L]: the Kd in test [1] (setting [9]) was 49 nM; in test [2] (setting [8]), 51 nM.

Turning to “RLAPEGPDPHHN [compound 30, RLAPEGPDPHHN]”, the “binding by the GmRLK18-1 derived LRR peptide, in words” value in test [1] (assays in vitro) is reported as “bound weakly”. The Kd in test [1] (setting [9]) was 44 nM; in test [2] (setting [8]) it was 84 nM. The “binding by the GmRLK8-1 LRR domain protein, in words” value in test [2] (assays in vitro) is “bound very weakly”.

On to RLAPGGPDPQHN [compound 2, RLAPGGPDPQHN], for which the figures for the Kd in test [1] (setting [9]) and in test [2] (setting [8]) were 45 nM and 96 nM, respectively. In test [2] (assays in vitro), the “binding by the GmRLK8-1 LRR domain protein, in words” value is reported as “bound very weakly”.

With RTVPSGPDPLHH [compound 3, RTVPSGPDPLHH], the “binding by the GmRLK18-1 derived LRR peptide, in words” value in test [1] (assays in vitro) is “strong binding constant”. The Kd in test [1] (setting [9]) was 29 nM; in test [2] (setting [8]), 50 nM.

With “SKRRVPNGPDPIHNR [compound 36, SKRRVPNGPDPIHNR]”, the Kd in test [1] (setting [9]) was 14 nM; in test [2] (setting [8]), 52 nM.

On to “cyclophilin: soybean cyclophilin, GenBank gi 17981611, binds the purified LRR domain”, for which the “binding to the GmRLK18-1 LRR domain in Far-Western” value in test [4] is reported as “bound strongly; also recorded: interacting partner”.

For the molecule RAELDFNYMSKRRVPNGPDPIHNRRAGNSGR (modifications not checked) [peptide 36L (GmCLE34, AtCLE36, MtCLE36)], the Kd is 51 nM in test [5] and 49 nM in test [6].

On to CTLSRLKTLDISNNALNGNLPATLSNLS (modifications not checked) [peptide L (GmLRR, GmRLK18-1)], for which the Kd is 135 nM in test [5] and 36 nM in test [7].

Take AHEVPSGPNPISNR (modifications not checked) [peptide T (GmTDIF, ZeTDIF)]: the Kd in test [5] worked out at 204 nM; in test [6] it was 20 nM.

RLAPGGPDPQHN (modifications not checked) [peptide 2 (GmNIC1, LjCLE-R2 and LjCLE-R1)]: the Kd in test [5] is 96 nM; in test [6] it was 45 nM.

Turning to KRLSPSGPDPHHH (modifications not checked) [peptide N (HgCLV3)], the Kd in test [5] is 78 nM; in test [6], 30 nM.

On to RLAPEGPDPHHN (modifications not checked) [peptide 30 (GmCLE30, GmRIC1)], for which the values for the Kd in test [5] and in test [6] were 84 nM and 44 nM, respectively.

In the case of KGLGLHEELRTVPSGPDPLHHHVNPPRQPR (modifications not checked) [peptide 3L (GmCLE3, AtCLE3, AtClv3 unmodified)], the Kd was 142 nM in test [5] and 65 nM in test [6].

Turning to RTVPSGPDPLHH (modifications not checked) [peptide 3 (GmCLE3, AtCLE3, AtClv3 unmodified)], the Kd in test [5] was determined as 50 nM; in test [6], 29 nM.

As to DLPLAPADRLAPGGPDPQHNVRAPPRKP (modifications not checked) [peptide 2L (GmNIC1, LjCLE-R2 and LjCLE-R1)], the Kd in test [5] was found to be 338 nM; in test [6], 142 nM.

On to SKRRVPNGPDPIHNR (modifications not checked) [peptide 36 (GmCLE34, AtCLE36, MtCLE36)], for which the figures for the Kd in test [5] and in test [6] were 52 nM and 14 nM, respectively.
